Numbers after ± are expanded uncertainties.
Legend:
[1] = xn = mol fraction of the nth substance listed; conditions: 101 kPa, Liquid; for speed of sound: Sing-around technique in a fixed-path interferometer; for mass density: Vibrating tube method
[2] = refractive index (Na D-line) (dimensionless); xn = mol fraction of the nth substance listed; conditions: 101 kPa, Liquid, Standard Abbe refractometry

CCCCCCCC[n+]1ccn(C)c1.F[B-](F)(F)F [1-methyl-3-octylimidazolium tetrafluoroborate] + C1COCCO1
Conditions | mass density, 298.15 K [kg/m3] | mass density, 308.15 K [kg/m3] | mass density, 318.15 K [kg/m3] | refractive index, 298.15 K | refractive index, 308.15 K | refractive index, 318.15 K | speed of sound, 298.15 K [m/s] | speed of sound, 308.15 K [m/s] | speed of sound, 318.15 K [m/s]
[1], x1 = 0.0859 | 1049.95 ± 0.15 | 1040.08 ± 0.15 | 1030.18 ± 0.15 | – | – | – | 1380.8 ± 1.3 | 1341.1 ± 1.3 | 1301.8 ± 1.3
[1], x1 = 0.192 | 1064.93 ± 0.18 | 1055.92 ± 0.18 | 1047.49 ± 0.18 | – | – | – | 1414.2 ± 1.4 | 1378.1 ± 1.4 | 1343.1 ± 1.4
[1], x1 = 0.2914 | 1074.44 ± 0.23 | 1066.14 ± 0.23 | 1057.87 ± 0.23 | – | – | – | 1436.8 ± 1.5 | 1403.6 ± 1.5 | 1370.9 ± 1.5
[1], x1 = 0.3963 | 1080.96 ± 0.31 | 1073.08 ± 0.3 | 1065.23 ± 0.3 | – | – | – | 1451.6 ± 1.6 | 1420.6 ± 1.6 | 1390 ± 1.6
[1], x1 = 0.4955 | 1085.46 ± 0.4 | 1077.85 ± 0.39 | 1070.11 ± 0.38 | – | – | – | 1460.4 ± 1.7 | 1430.9 ± 1.7 | 1401.8 ± 1.7
[1], x1 = 0.5947 | 1088.93 ± 0.5 | 1081.57 ± 0.49 | 1074.25 ± 0.48 | – | – | – | 1466.5 ± 1.8 | 1438 ± 1.8 | 1410.1 ± 1.8
[1], x1 = 0.69 | 1091.4 ± 0.6 | 1084.18 ± 0.59 | 1076.98 ± 0.58 | – | – | – | 1469 ± 1.9 | 1440.8 ± 1.9 | 1414.8 ± 1.9
[1], x1 = 0.7938 | 1093.66 ± 0.74 | 1086.61 ± 0.72 | 1079.53 ± 0.71 | – | – | – | 1475.1 ± 2.1 | 1447.9 ± 2 | 1421.7 ± 2
[1], x1 = 0.8893 | 1095.2 ± 0.87 | 1088.29 ± 0.86 | 1081.42 ± 0.84 | – | – | – | 1477.8 ± 2.2 | 1450.9 ± 2.2 | 1425.1 ± 2.2
[1], x1 = 1 | 1097.61 ± 1 | 1090.9 ± 1 | 1084.17 ± 1 | – | – | – | 1481.1 ± 2.3 | 1453.9 ± 2.3 | 1428.2 ± 2.3
[2], x1 = 0.0859 | – | – | – | 1.42308 ± 0.00037 | 1.41854 ± 0.00037 | 1.41465 ± 0.00037 | – | – | –
[2], x1 = 0.192 | – | – | – | 1.42601 ± 0.00038 | 1.42173 ± 0.00038 | 1.41833 ± 0.00038 | – | – | –
[2], x1 = 0.2914 | – | – | – | 1.42812 ± 0.00039 | 1.42412 ± 0.00039 | 1.42107 ± 0.00039 | – | – | –
[2], x1 = 0.3963 | – | – | – | 1.42935 ± 0.00041 | 1.42549 ± 0.00041 | 1.42264 ± 0.00041 | – | – | –
[2], x1 = 0.4955 | – | – | – | 1.43039 ± 0.00043 | 1.42664 ± 0.00043 | 1.42387 ± 0.00042 | – | – | –
[2], x1 = 0.5947 | – | – | – | 1.43124 ± 0.00045 | 1.42746 ± 0.00044 | 1.42483 ± 0.00044 | – | – | –
[2], x1 = 0.69 | – | – | – | 1.43181 ± 0.00046 | 1.42809 ± 0.00046 | 1.42548 ± 0.00046 | – | – | –
[2], x1 = 0.7938 | – | – | – | 1.43221 ± 0.00049 | 1.42865 ± 0.00049 | 1.42605 ± 0.00048 | – | – | –
[2], x1 = 0.8893 | – | – | – | 1.43262 ± 0.00051 | 1.42907 ± 0.00051 | 1.42628 ± 0.00051 | – | – | –
[2], x1 = 1 | – | – | – | 1.43296 ± 0.00053 | 1.42939 ± 0.00053 | 1.42684 ± 0.00053 | – | – | –
